Results on 8 compounds are retold here after publication PMC11284600, “Many human pharmaceuticals are weak inhibitors of the cytochrome P450 system in rainbow trout (Oncorhynchus mykiss) liver S9 fractions” (Frontiers in Toxicology, 2024).

Structures can show the parent of a compound that is named as a salt. Where two headings read alike, the source gives them in different places.

One data set relates to Human CYP3A. To be noted: cited from earlier work; for Human CYP3A interactions: substrate status: ref Drugbank unless otherwise stated (Dragovic et al., 2013; Niwa et al., 2005).
In data set [1] the target is T1, CYP3A-like BFCOD activity (Oncorhynchus mykiss, UniProt O42563).
T1 sequence (O42563 1-518): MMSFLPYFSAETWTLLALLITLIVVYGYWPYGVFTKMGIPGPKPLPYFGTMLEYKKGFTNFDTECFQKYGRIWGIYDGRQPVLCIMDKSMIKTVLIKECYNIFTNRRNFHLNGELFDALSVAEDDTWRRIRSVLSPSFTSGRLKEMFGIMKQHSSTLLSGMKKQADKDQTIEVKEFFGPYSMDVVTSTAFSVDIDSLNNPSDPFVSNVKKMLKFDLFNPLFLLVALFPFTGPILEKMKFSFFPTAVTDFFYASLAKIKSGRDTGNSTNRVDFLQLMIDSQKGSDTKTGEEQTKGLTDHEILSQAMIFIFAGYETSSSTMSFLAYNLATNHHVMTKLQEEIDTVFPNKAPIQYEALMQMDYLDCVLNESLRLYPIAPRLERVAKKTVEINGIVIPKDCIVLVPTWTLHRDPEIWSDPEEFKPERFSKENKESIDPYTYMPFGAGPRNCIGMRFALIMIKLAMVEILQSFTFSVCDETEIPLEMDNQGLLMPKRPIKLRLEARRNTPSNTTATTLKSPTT
Kind of data set: BFCOD inhibition in RT-S9 (IC50 shift assay). The settings on record: both, Christophersen, Bornhoeved, rainbow trout (Oncorhynchus mykiss). The procedure:
(§1) Commercially available rainbow trout (O. mykiss) liver S9 fractions were used as the enzyme source for the in vitro P450 inhibition assays (RTL-S9, total protein concentration 20 mg/mL, Primacyt Cell Culture Technology GmbH).
(§2) The inhibitory impacts of the test substances toward the rainbow trout liver P450 system in vitro were assessed based on EROD and BFCOD as the marker reactions for CYP1A- and CYP3A-like isoenzyme activities, respectively. […] In this study, the EROD (CYP1A) and BFCOD (CYP3A) activities were determined using 0.5 mg/mL RT-S9 (total protein) concentration and 1 or 2 mM NADPH, respectively. […] All incubations were performed in duplicate in a total volume of 100 µL of potassium phosphate buffer (0.1 M, pH 7.8), at 11°C ± 1°C on a thermostated orbital shaker (LLG Labware). The reactions were terminated by the addition of 37.5 μL of the quenching solution (0.5 M Trizma base/acetonitrile 20:80, v/v). […] The quantitation of the metabolites (resorufin or HFC) was based on linear regression of the respective standards prepared in the potassium phosphate buffer. Negative control incubations were performed separately without the marker substrate, without cofactors, and without RT-S9 to ensure that the detected fluorescence signals arise from the metabolic conversion of the marker substrates (ER or BFC) into their respective metabolites (resorufin or HFC, respectively).
(§3) In this study, the preincubation was performed using three different protocols A-C (Table 2). In the first protocol, the test substance (each separately at six different concentrations between 0.01 and 500 µM) and RT-S9 were preincubated without any cofactors, and the marker reaction was initiated by the addition of the marker substrate (ER or BFC) and NADPH (Protocol A). This enabled the determination of the inhibitory impact of the parent form of the test substance on the respective marker activity. In the second protocol, the test substance and RT-S9 were preincubated together with NADPH, and the marker reaction was initiated by the addition of the marker substrate (Protocol B). In this manner, the test substance could undergo P450 metabolism already during the preincubation step, which may reduce its concentration and thus the inhibitory impact toward the marker reactions, or result in the formation of reactive or inhibitory metabolites, which typically increases the inhibitory impact compared with the parent form (Protocol A). […] In this manner, the test substance could undergo both P450 and phase II metabolism already during the preincubation step, which may likewise reduce its concentration and inhibitory impact toward the marker reactions, and even help eliminate the possible reactive metabolites via glutathione conjugation. […] Additionally, positive control incubations of the marker substrates (ER or BFC) without the test substance (zero inhibitor concentration) were included in each series to determine the basal EROD or BFCOD activity in RT-S9.
(§4) The residual solvent concentration was kept constant at all inhibitor concentrations, including zero, to eliminate its impact on the IC50 concentrations derived from the empirical data. The IC50 shifts for Protocols B and C were calculated according to Eq. 2: IC50 shift=IC50,Protocol A/IC50,Protocol B or Protocol C (2)
(§5) In this manner, the impact of the test substance’s own metabolism (during the preincubation step) on the inhibitory impact could be evaluated.

Data set [2] has as its system CYP1A-like ethoxyresorufin O-deethylase (EROD) activity. The experiment in a line: in vitro. To be noted: both, Christophersen, Bornhoeved, rainbow trout (Oncorhynchus mykiss); for inhibition at 10 min: pH 7.8. The procedure: as §1, §2, §3, §4, §5
Data set [3] in a line: Unbound fraction in RT-S9 by rapid equilibrium dialysis. Type of data set: in vitro ADME, rainbow trout (Oncorhynchus mykiss). To be noted: 10 µM test substance, 1 mg/mL RT-S9, pH 7.8, 11°C, n = 3, read-out: Unbound fraction (fU,RT-S9). The method, then:
The unbound (free) fractions of the test substances in RT-S9 (fU,RT-S9) were determined using rapid equilibrium dialysis assay (RED, Thermo Fisher Scientific), which exploits two-compartment inserts separated by a dialysis membrane with a molecular weight cut-off of 8,000 Da. In the RED assay, each test pharmaceutical (10 μM) was incubated in triplicate with RT-S9 (1 mg/mL) in 50 mM potassium phosphate buffer (pH 7.8) in a total volume of 300 µL on one side of the membrane (protein-containing chamber), and 350 μL of the plain phosphate buffer on the other side (protein-free chamber). To reach equilibrium, the samples were incubated on an orbital shaker (C25KC Incubator shaker, New Brunswick Scientific, 120 rpm) at 11°C for 4 h. Next, 50 µL aliquots were collected from both chambers separately and diluted by adding 50 µL of the plain buffer (to the protein-containing sample) or 50 μL of 1 mg/mL RT-S9 in the buffer (to the protein-free sample). Finally, the RT-S9 protein was precipitated by the addition of acetonitrile (+200 μL) to both samples separately, followed by incubation on ice for 30 min and centrifugation (16100 g, 15 min). The test substance concentrations in the supernatants of both samples were determined using liquid chromatography. The instrumentation and the analytical methods used for chromatographic analyses are described in detail in the Supplementary Table S2. The unbound fractions of the test substances in RT-S9 (fU,RT-S9) were calculated according to Eq. 3: fU,RT−S9=1− PC−PF/PC (3) where [PC] and [PF] are the test substance concentrations in the samples collected from protein-containing and protein-free chambers, respectively. To account for the test substance’s binding to the RT-S9, the nominal IC50 values were corrected for unbound fraction (fU,RT-S9) according to Eq. 4: Unbound IC50=Nominal IC50×fU,RT−S9 (4)

Data set [4] addresses T2, CYP3A-like 7-benzyloxy-4-trifluoromethylcoumarin O-debenzylase (BFCOD) activity in rainbow trout liver S9 fractions (Oncorhynchus mykiss, UniProt O42563).
T2 sequence (O42563 1-518): T1 sequence (O42563 1-518)
The experiment in a line: BFCOD inhibition in RT-S9 (IC50 shift assay). To be noted: within the tested concentration range. The procedure:
as §1, §2, §3, §4, §5

On the set-up of data set [5]: method as in PubChem. To be noted: (e) empirical; ref PubChem; cited from earlier work.
Data set [6] deals with CYP1A-like ethoxyresorufin O-deethylase (EROD) activity in rainbow trout liver S9 fractions. Kind of data set: EROD inhibition in RT-S9 (IC50 shift assay). The method, then: as §1, §2, §3, §4, §5
For a further data set, the system named is Human CYP1A. The settings on record: ref Drugbank unless otherwise stated (Dragovic et al., 2013; Conard and Ober 1984; Niwa et al., 2005); cited from earlier work.
The next data set deals with CYP1A-like EROD activity. Kind of data set: in vitro. To be noted: both, Christophersen, Bornhoeved, rainbow trout (Oncorhynchus mykiss). The method, then:
as §1, §2, §3, §4, §5

The mark [7] stands for this setting: s9, pH 7.8, BFCOD inhibition in RT-S9, Nominal IC50, Protocol B: 30 min preincubation w/NADPH (2 mM).
[8] abbreviates: s9, pH 7.8, BFCOD inhibition in RT-S9, Nominal IC50, Protocol C: 30 min preincubation w/all cofactors (NADPH, UDPGA, PAPS, glutathione).
The mark [9] stands for this setting: pH 7.8, EROD inhibition in RT-S9, Nominal IC50.
[10] abbreviates: pH 7.8, EROD inhibition in RT-S9, Unbound IC50.
The mark [11] stands for this setting: rainbow trout liver S9 fractions (RT-S9).

Turning to `CN1CCCC(n2nc(Cc3ccc(Cl)cc3)c3ccccc3c2=O)CC1` (stereo not drawn) [Azelastine, azelastine hydrochloride], the “Human CYP3A interactions: inhibitor status” value in the data set on Human CYP3A (ref Drugbank unless otherwise stated (Cohen et al., 2000; Guo et al., 1997; Niwa et al., 2005)) is on record as “Inhibitor (m)”. In addition, the IC50 at 20 min in [1] (s9, pH 7.8) is > 100 µM; in [1] (setting [7]), > 100 µM; in data set [1] (setting [8]) it was > 100 µM. The inhibition at 20 min in data set [1] (s9, pH 7.8) is ≤ 50%. The inhibition at 10 min in [2] is > 50%. For the same compound, the half-inhibitory concentration (IC50) at 10 min in data set [2] (setting [9]) came to 28 ± 2 µM; in data set [2] (setting [10]) it was 3.8 ± 0.5 µM. Besides, in data set [3] (setting [11]), the fraction unbound at 4 h, 10 µM worked out at 0.14 ± 0.01.

Regarding `CCNC(=O)CCC/C=C\C[C@@H]1[C@@H](/C=C/[C@@H](O)CCc2ccccc2)[C@H](O)C[C@@H]1O` [Bimatoprost, bimatoprost], in the data set with Human CYP3A, the “Human CYP3A interactions: substrate status” value is given as “Substrate”. Besides, the “BFCOD inhibition in RT-S9 (in words)” value in [4] is “did not significantly inhibit”. The LogKOW in data set [5] was 3.2 (e).

For the compound `Cc1ncsc1CCCl` [Clomethiazole, clomethiazole hydrochloride], the “Human CYP3A interactions: substrate status” value in the data set on Human CYP3A is “Substrate”. Moreover, the “BFCOD inhibition in RT-S9 (in words)” value in data set [4] is “did not significantly inhibit”. The “EROD inhibition in RT-S9 (in words)” value in data set [6] (within the tested concentration range) is listed as “did not significantly inhibit”; in [6] (within the tested concentration range, listed as Chlomethiazole), “no significant EROD inhibition”. Besides, the fraction unbound at 4 h, 10 µM in [3] (rainbow trout (Oncorhynchus mykiss)) is > 0.9.

As for `CN1CCN(C2=Nc3cc(Cl)ccc3Nc3ccccc32)CC1` [Clozapine, clozapine], the inhibition at 20 min in data set [1] (s9, pH 7.8) is ≤ 50%. In addition, the IC50 at 20 min in [1] (s9, pH 7.8, BFCOD inhibition in RT-S9, Nominal IC50, Protocol A: 30 min preincubation without cofactors, extrapolated) was > 100 µM; in data set [1] (setting [7]), > 100 µM; in data set [1] (setting [8]) it was > 100 µM; in data set [1] (s9, pH 7.8, BFCOD inhibition in RT-S9, Unbound IC50, nominal IC50 of Protocol A × fU,RT-S9 (Eq. 4)), 10 to 30 µM. For the same compound, the “Human CYP1A interactions: substrate status” value in the data set with Human CYP1A was “Substrate”. Further, the LogKOW in [5] is given as 3.23 (e). For the same compound, the inhibition at 10 min in [2] was > 50%. Moreover, the results for the IC50 at 10 min in data set [2] (setting [9]) and in data set [2] (setting [10]) were 46 ± 9 µM and ~10 µM, respectively. For the same compound, the fraction unbound at 4 h, 10 µM in data set [3] (setting [11]) came out at 0.21 ± 0.05.

`COc1ccc2nc([S@@+]([O-])Cc3ncc(C)c(OC)c3C)[nH]c2c1` [Esomeprazole, esomeprazole magnesium hydrate]: in the data set with Human CYP3A, the “Human CYP3A interactions: substrate status” value is “Substrate”. Besides, the IC50 at 20 min was > 100 µM in data set [1] (s9, pH 7.8); > 100 µM in data set [1] (setting [7]); > 100 µM in data set [1] (setting [8]). The inhibition at 20 min in data set [1] (s9, pH 7.8) is ≤ 50%. In addition, the IC50 shift at 20 min in data set [1] (s9, pH 7.8, BFCOD inhibition in RT-S9, IC50 shift (A/B), IC50 Protocol A / IC50 Protocol B, TDI if ≥1.5) is 1.2 ± 0.2; in data set [1] (s9, pH 7.8, BFCOD inhibition in RT-S9, IC50 shift (A/C), IC50 Protocol A / IC50 Protocol C) it was 0.8. For the same compound, the inhibition at 10 min in data set [2] is > 50%. In addition, in data set [2] (setting [10]), 3 ± 0.8 µM corresponded to half-maximal inhibition (IC50 at 10 min). For the same compound, the IC50 shift at 10 min is 2.3 ± 0.7 in the data set on CYP1A-like EROD activity (s9, pH 7.8, EROD inhibition in RT-S9, IC50 shift (A/B)) and 1.7 in the data set on CYP1A-like EROD activity (s9, pH 7.8, EROD inhibition in RT-S9, IC50 shift (A/C)). Besides, the fraction unbound at 4 h, 10 µM in [3] (setting [11]) came to 0.36 ± 0.08.

As to `COc1cc2nc(N3CCN(C(=O)c4ccco4)CC3)nc(N)c2cc1OC` [Prazosin, prazosin hydrochloride], the IC50 at 20 min in data set [1] (s9, pH 7.8) was > 25 µM. In [6], the “EROD inhibition in RT-S9 (in words)” value is listed as “inhibited selectively only EROD activity”. Further, the inhibition at 10 min in data set [2] is > 50%. The same compound displayed an IC50 at 10 min in data set [2] (setting [9]) of 21 ± 2 µM.

Take `CCN1CCCC1CNC(=O)c1cc(S(N)(=O)=O)ccc1OC` (stereo not drawn) [Sulpiride, sulpiride]: in [4], the “BFCOD inhibition in RT-S9 (in words)” value is listed as “did not significantly inhibit”.

In the case of `CN(C)CCc1c[nH]c2ccc(C[C@H]3COC(=O)N3)cc12` [Zolmitriptan, zolmitriptan], the “BFCOD inhibition in RT-S9 (in words)” value in data set [4] is reported as “did not significantly inhibit”. In addition, in the data set on Human CYP1A, the “Human CYP1A interactions: substrate status” value was “Substrate”. Also, the LogKOW in data set [5] is 1.792 (e).
